Results taken from US9302999B2, “Substituted triazoles as herbicides” (E. I. DU PONT DE NEMOURS AND COMPANY, priority 2012, dated 2016).

Assays:
Format in all cases: in vivo
[1] = system: beggarticks (hairy beggarticks, Bidens pilosa); assay: Test E pre-/postemergence: beggarticks; settings: Postemergence, scale 0 to 100
Source text: Seeds of plant species selected from corn (Zea mays), soybean (Glycine max), velvetleaf (Abutilon theophrasti), lambsquarters (Chenopodium album), poinsettia, wild (wild poinsettia, Euphorbia heterophylla), pigweed, palmer (palmer pigweed, Amaranthus palmeri), waterhemp (common waterhemp, Amaranthus rudis), smartweed (ladysthumb smartweed, Polygonum persicaria), surinam grass (Brachiaria decumbens), crabgrass, large (large crabgrass, Digitaria sanguinalis), crabgrass, Brazil (Brazilian crabgrass, Digitaria horizontalis), panicum, fall (fall panicum, Panicum dichotomiflorum), foxtail, giant (giant foxtail, Setaria faberii), foxtail, green (green foxtail, Setaria viridis), goosegrass (Eleusine indica), johnsongrass (Sorghum halepense), ragweed (common ragweed, Ambrosia elation), barnyardgrass (Echinochloa crus-galli), sandbur (southern sandbur, Cenchrus echinatus), arrowleaf sida (Sida rhombifolia), ryegrass, Italian (Italian ryegrass, Lolium multiflorum), dayflower, (VA) (Virginia dayflower, Commelina virginica), field bindweed (Convolvulus arvensis), cocklebur (common cocklebur, Xanthium strumarium), morningglory (Ipomoea coccinea), nightshade (eastern black nightshade, Solanum ptycanthum), kochia (Kochia scoparia), nutsedge, yellow (yellow nutsedge, Cyperus esculentus) and beggarticks (hairy beggarticks, Bidens pilosa) were planted into a silt loam soil and treated preemergence with test chemicals formulated in a non-phytotoxic solvent mixture which included a surfactant. At the same time, plants selected from these crop and weed species were planted in pots containing a growing medium comprising spaghnum peat moss, vermiculite, wetting agent and starter nutrients and treated with postemergence applications of some of the test chemicals formulated in the same manner. Plants ranged in height from 2 to 18 cm for postemergence treatments (1- to 4-leaf stage).
(§1) Treated plants and controls were maintained in a greenhouse for 14 to 21 days, after which time all species were compared to controls and visually evaluated. Plant response ratings, summarized in Table E, are based on a scale of 0 to 100 where 0 is no effect and 100 is complete control. A dash (-) response means no test result.

[2] = system: Common Chickweed (STEME, Stellaria media); assay: Test H post-emergence, alone and in combination: Common Chickweed
Source text: (§2) Seeds of plant species selected from wheat (TRZAW, Triticum aestivum), barley (HORBW, Hordeum vulgare), Kochia (KCHSC, Kochia caoparia) blackgrass (ALOMY, Alopecurus myosuroides), canarygrass (PHAMI, Phalaris minor), Italian ryegrass (LOLMU, Lolium multiflorum) common lambsquarter (CHEAL, Chenopodium album), pigweed (AMARE, Amaranthus retroflexus), Common Chickweed (STEME, Stellaria media), Russian thistle (SASKR, Salsola iberica), Wild Buckwheat (POLCO, Polygonum convolvulus), Catchweed Bedstraw (GALAP, Galium aparine), Mustard (SINAR, Sinapisar arvensis), Henbit Deadnettle (LAMAM, Lamium amplexicaule), Wild Radish (RAPRA, Raphanus raphanistrum), Field Poppy (PAPRH, Papaver rhoeas), Field Violet (VIOAR, Viola arvennsis), Scentless Chamomile (MATIN Matricaria inodora) were planted into soil and treated post-emergence with test chemicals formulated in a non-phytotoxic solvent mixture. Plants were grown in a greenhouse using supplemental lighting to maintain a photoperiod of approximately 14 hours; daytime and nighttime temperatures were approximately 23°-29° and 16°-19° Celsius, respectively. Balanced fertilizer was applied through the watering system. Treated plants and controls were maintained in a greenhouse for 20 days, after which time all species were compared to controls and visually evaluated. Plant response ratings were calculated as the mean of three replicates (unless otherwise indicated), are summarized in Table G, and are based on a scale of 0 to 100 where 0 is no effect and 100 is complete control. A dash (-) response means no test result.

[3] = system: Russian thistle (SASKR, Salsola iberica); assay: Test H post-emergence, alone and in combination: Russian thistle
Source text: as §2

[4] = system: Italian ryegrass (LOLMU, Lolium multiflorum); assay: Test H post-emergence, alone and in combination: Italian ryegrass
Source text: as §2

[5] = system: wheat (TRZAW, Triticum aestivum); assay: Test H post-emergence, alone and in combination: wheat
Source text: as §2

[6] = system: Wild Buckwheat (POLCO, Polygonum convolvulus); assay: Test H post-emergence, alone and in combination: Wild Buckwheat
Source text: as §2

[7] = system: pigweed (AMARE, Amaranthus retroflexus); assay: Test H post-emergence, alone and in combination: pigweed
Source text: as §2

[8] = system: Field Violet (VIOAR, Viola arvennsis); assay: Test H post-emergence, alone and in combination: Field Violet
Source text: as §2

[9] = system: smartweed (ladysthumb smartweed, Polygonum persicaria); assay: Test F pre-/postemergence: smartweed
Source text: Seeds of plant species selected from corn (Zea mays), soybean (Glycine max), velvetleaf (Abutilon theophrasti), lambsquarters (Chenopodium album), poinsettia, wild (wild poinsettia, Euphorbia heterophylla), pigweed, palmer (palmer pigweed, Amaranthus palmeri), waterhemp (common waterhemp, Amaranthus rudis), surinam grass (Brachiaria decumbens), crabgrass, Brazil (Brazilian crabgrass, Digitaria horizontalis), panicum, fall (fall panicum Panicum dichotomiflorum), crabgrass, large (large crabgrass, Digitaria sanguinalis), foxtail, giant (giant foxtail, Setaria faberii), foxtail, green (green foxtail Setaria viridis), goosegrass (Eleusine indica), ragweed (common ragweed, Ambrosia elatior), barnyardgrass (Echinochloa crus-galli), sandbur (southern sandbur, Cenchrus echinatus), arrowleaf sida (Sida rhombifolia), ryegrass, Italian (Italian ryegrass, Lolium multiflorum), dayflower, VA (Virginia (VA) dayflower, Commelina virginica), field bindweed (Convolvulus arvensis), cocklebur (common cocklebur, Xanthium strumarium), morningglory (Ipomoea coccinea), nightshade (eastern black nightshade, Solanum ptycanthum), kochia (Kochia scoparia), nutsedge, yellow (yellow nutsedge, Cyperus esculentus), johnsongrass (Sorghum halepense), smartweed (ladysthumb smartweed, Polygonum persicaria), and beggarticks (hairy beggarticks, Bidens pilosa), were planted into a silt loam soil and treated preemergence with test chemicals formulated in a non-phytotoxic solvent mixture which included a surfactant. At the same time, plants selected from these crop and weed species and also pigweed (Amaranthus retroflexus), waterhemp_RES1 (ALS/Triazine resistant common waterhemp, Amaranthus rudis) and waterhemp_RES2 (ALS/HPPD resistant common waterhemp, Amaranthus rudis) were planted in pots containing a planting medium comprising spaghnum peat moss, vermiculite, wetting agent and starter nutrients treated with postemergence applications of some of the test chemicals formulated in the same manner. Plants ranged in height from 2 to 18 cm for postemergence treatments (1- to 4-leaf stage).
as §1

Q: How did the “Plant response rating: Beggarticks” value ([1]; 250 g ai/ha) turn out when Cc1nn(-c2ccc(C(F)(F)F)cc2)nc1Cc1ccnc(C(F)(F)F)c1 [Compound 47, 4-[[5-methyl-2-[4-(trifluoromethyl)phenyl]-2H-1,2,3-triazol-4-yl]methyl]-2-(trifluoromethyl)pyridine] was run?
A: 50

Q: And the “Plant response rating: Beggarticks” value ([1]; 16 g ai/ha)?
A: 30

Q: And the “Plant response rating: Beggarticks” value ([1]; 31 g ai/ha)?
A: 30

Q: What about the “Plant response rating: Beggarticks” value ([1]; 62 g ai/ha) of the same compound?
A: 40

Q: What about the “Plant response rating: Beggarticks” value ([1]; 125 g ai/ha) of the same compound?
A: 50

Q: Cc1nn(-c2ccc(F)cc2)nc1Oc1ccnc(C(F)(F)F)c1 [Compound 129, 4-[[2-(4-fluorophenyl)-5-methyl-2H-1,2,3-triazol-4-yl]oxy]-2-(trifluoromethyl)pyridine] was tested. Which STEME plant response ([2]; Rate 31) did it give?
A: 50

Q: And the STEME plant response ([2]; Rate 62)?
A: 70

Q: And the STEME plant response ([2]; Rate 125)?
A: 80

Q: And the SASKR plant response ([3]; Rate 31)?
A: 65

Q: What about the SASKR plant response ([3]; Rate 62) of the same compound?
A: 80

Q: And the SASKR plant response ([3]; Rate 125)?
A: 90

Q: And the LOLMU plant response ([4]; Rate 31)?
A: 10

Q: What about the LOLMU plant response ([4]; Rate 62) of the same compound?
A: 10

Q: What about the LOLMU plant response ([4]; Rate 125) of the same compound?
A: 15

Q: And the TRZAW plant response ([5]; Rate 31)?
A: 10

Q: And the TRZAW plant response ([5]; Rate 62)?
A: 15

Q: And the TRZAW plant response ([5]; Rate 125)?
A: 15

Q: What about the POLCO plant response ([6]; Rate 31) of the same compound?
A: 30

Q: What about the POLCO plant response ([6]; Rate 62) of the same compound?
A: 25

Q: And the POLCO plant response ([6]; Rate 125)?
A: 70

Q: What about the AMARI plant response ([7]; Rate 31) of the same compound?
A: 80

Q: And the AMARI plant response ([7]; Rate 62)?
A: 90

Q: And the AMARI plant response ([7]; Rate 125)?
A: 95

Q: And the VIOAR plant response ([8]; Rate 31)?
A: 60

Q: What about the VIOAR plant response ([8]; Rate 62) of the same compound?
A: 75

Q: And the VIOAR plant response ([8]; Rate 125)?
A: 90

Q: What does the source list for Cc1nn(-c2ccc(C(F)(F)F)c(F)c2)nc1Cc1ccnc(C(F)(F)F)c1 [Compound 162]?
A: Plant response rating, Smartweed ([9]; Postemergence, 4 g ai/ha, scale 0 to 100): 10; Plant response rating, Smartweed ([9]; Postemergence, 8 g ai/ha, scale 0 to 100): 10; Plant response rating, Smartweed ([9]; Postemergence, 16 g ai/ha, scale 0 to 100): 10; Plant response rating, Smartweed ([9]; Postemergence, 31 g ai/ha, scale 0 to 100): 15; Plant response rating, Smartweed ([9]; Postemergence, 62 g ai/ha, scale 0 to 100): 15; Plant response rating, Smartweed ([9]; Preemergence, 4 g ai/ha, scale 0 to 100, 0 no effect, 100 complete control): 0; Plant response rating, Smartweed ([9]; Preemergence, 8 g ai/ha, scale 0 to 100, 0 no effect, 100 complete control): 0; Plant response rating, Smartweed ([9]; Preemergence, 16 g ai/ha, scale 0 to 100 (0 no effect, 100 complete control)): 0; Plant response rating, Smartweed ([9]; Preemergence, 31 g ai/ha, scale 0 to 100 (0 no effect, 100 complete control)): 0
